The text below walks through data of PMC4039119 (Oncotarget, 2014).

Assay [1] relates to ITGA6 in MDA-MB-231 cells. Kind of assay: Western blot of ITGA6 expression after TGFβ treatment. Format: cell-based, human. On the procedure: (§1) Whole cell lysates were prepared using 4% (w/v) CHAPS buffer while tumor lysates were prepared by homogenizing the tumors in RIPA lysis buffer. Proteins from control and treated samples were subjected to SDS-PAGE and the segregated proteins were transferred to PVDF membrane. The membrane was developed as described by us previously. All antibodies used in the study were purchased from Cell signaling except HER2 (Abcam, Cambridge, MA), ITGB4 (Santacruz Biotechnology, Dallas, TX), TWIST (Santacruz Biotechnology, Dallas, TX), phospho Akt (S473) (Santacruz Biotechnology, Dallas, TX) and Caspase 3 (Santacruz Biotechnology, Dallas, TX).
In general terms: In western blotting, separated proteins are transferred to a membrane and probed.

A further assay has as its system ITGA6 in 4T-1 cells. The description is as above. Format: cell-based, murine. As for the experimental part: as §1
Assay [2] has as its system normal human melanocyte epithelial (PIG1) cells. Kind of assay: Sulforhodamine B cell survival assay in normal cells. Format: cell-based. The note with it: 50nM CuB for 72h. On the procedure: The cells were fixed with ice cold 10% trichloroacetic acid, washed and stained with sulforhodamine B (SRB) dye and the optical density was measured in Tris base solution using plate reader, after washing the dye with 1% acetic acid solution as described by us previously. […]
vivo breast tumor growth suppression – Gupta et al
24, 48h and 72h. Cell survival was measured with sulforhodamine B assay to estimate the IC50 values. The ex periments were repeated at least three times with 4 replicates in each ex periment. B. Comparison of the cell survival of PIG1 and the breast cancer cell lines at 50nM […]
(1 picture or pasted object on this page, not shown here)

Assay [3] concerns MDA-MB-231, SKBR3, MCF-7 and 4T-1 breast cancer cells. Kind of assay: Sulforhodamine B cell survival assay, range over the breast cancer cell panel. Format: cell-based. As for the experimental part: The cells were fixed with ice cold 10% trichloroacetic acid, washed and stained with sulforhodamine B (SRB) dye and the optical density was measured in Tris base solution using plate reader, after washing the dye with 1% acetic acid solution as described by us previously.

The subject of a further assay is MCF-7 cells. The assay is described as follows: Annexin V-FITC apoptosis assay. Format: cell-based, human. The conditions noted are these: MCF-7, 75nM CuB for 72h. On the procedure:
(§2) Apoptosis assay was performed using a kit (BD Biosciences, CA) according to manufacturer's instructions. Approximately, 0.1x10^6 cells were plated in 6-well plate and left overnight for attachment. […] A 5.0μl of Annexin V-FITC and 5μl of propidium iodide (BD Biosciences, San Jose, CA) were added to the 100μl of suspension and incubated for additional 20 min at room temperature in dark. Total sample volume was made up to 200μl with binding buffer. Samples were analyzed by flow cytometer after vortexing (Accuri C6, MI).

The subject of the next assay is MDA-MB-231 cells. The assay is described as follows: Annexin V-FITC apoptosis assay. Format: cell-based, human. The note with it: MDA-MB-231, 75nM CuB for 72h. As for the experimental part:
as §2

The next assay relates to SKBR3 cells. The assay is described as follows: Annexin V-FITC apoptosis assay. Format: cell-based, human. The note with it: SKBR3, 75nM CuB for 72h. As for the experimental part: as §2
For a further assay, the system named is 4T-1 cells. Kind of assay: Annexin V-FITC apoptosis assay. The conditions noted are these: 4T-1, 75nM CuB for 72h. Format: cell-based, murine. As for the experimental part: as §2
The test system of assay [4] is MDA-MB-231 orthotopic tumors. The assay is described as follows: Orthotopic breast tumor therapy model. Format: in vivo, female athymic nude mice. The note with it: 2mg/kg oral gavage every day. As for the experimental part:
Female athymic nude mice (4-6 weeks old) were obtained from Jackson Laboratories (Ban harbor, Maine, USA) and maintained under specific pathogen-free conditions. The use of athymic nude mice and their treatment was approved by the Institutional Animal Care and Use Committee (IACUC), Texas Tech University Health Sciences Center, and the experiments were conducted in strict compliance with the regulations. Mice were given antioxidant-free AIN-76A special diet (TestDiet, Richmond, IN) one week before starting the experiment. Exponentially growing MDA-MB-231 cells were harvested, washed and resuspended in PBS at a density of 50x10^6 cells per ml with 80% matrigel (BD Biosciences, San Jose, CA). A suspension of 0.1mL containing 5x10^6 cells was injected in the mammary fat pads of the recipient mice. Tumor volumes and animal weights were measured twice a week as described by us previously. When the tumors reached a size of about 50-80 mm^3, mice were randomly segregated into two groups with ten mice in each group. […] Mice were sacrificed on day 60 by CO2 overdose and death was confirmed by cervical dislocation in accordance with IACUC guidelines. The tumors were dissected out aseptically from each mouse, weighed and snap frozen in liquid-nitrogen for western blot analysis.

The next assay has as its system 4T-1 orthotopic tumors. Kind of assay: Orthotopic breast tumor therapy model. Format: in vivo, female BALB/c mice. The note with it: 1mg/kg i.p. every third day. On the procedure: In another experiment, female BALB/c mice (4-6 weeks old) were obtained from Jackson Laboratories (Ban harbor, Maine, USA) and maintained under controlled humidity and temperature conditions. The use of BALB/c mice and their treatment was approved by the Institutional Animal Care and Use Committee (IACUC), Texas Tech University Health Sciences Center, and the experiments were conducted in strict compliance with the regulations. Exponentially growing 4T-1 cells were harvested, washed and re-suspended in PBS at a density of 1x10^6 cells per ml with 50% matrigel. A suspension of 0.1mL containing 0.1x10^6 cells was injected in the mammary fat pads of the recipient mice. Tumor volumes and animal weights were measured every alternate day as described by us previously. When the tumors reached a size of about 30-50 mm3, mice were randomly segregated into two groups with eight mice in each group. […] The control mice received vehicle alone. Mice were sacrificed on day 28 by CO2 overdose and death was confirmed by cervical dislocation in accordance with IACUC guidelines. The tumors were removed aseptically from each mouse, weighed and snap frozen in liquid-nitrogen for further analysis.

For the next assay, the system named is melanoma tumors. The note with it: 1mg/kg intraperitoneal thrice a week, after 23 days; cited from earlier work.
In assay [5] the test system is non-small lung carcinoma tumor xenografts. The note with it: 1mg/kg every alternate day for 5 weeks; cited from earlier work.
The subject of assay [6] is MDA-MB-231 orthotopic tumor. The conditions noted are these: after 36 days, cited from earlier work.

Read-outs that look alike come from different tables or passages of the source.

Usually IC50 stands for the concentration needed to halve the response being measured.

As for TGFβ, the “increase of ITGA6 expression” value (in assay [1]; in the assay on ITGA6 in 4T-1 cells) was “about 1.5 fold” each time.
Turning to Cucurbitacin B [CuB], the “growth inhibition of PIG1 cells” value in assay [2] is 20-30%. The “growth inhibition of cancer cell lines SKBR3, MDA-MB-231, MCF-7 and 4-T1” value in assay [3] (50nM CuB for 72h) was 50-70%. The IC50 in assay [3] (after 48 and 72 h of treatment) lay within 0.018 to 0.05 µM. In addition, the “apoptosis induced (cells)” value in the assay on MCF-7 cells is “about 60%”; with MDA-MB-231 cells, “about 60%”; with SKBR3 cells, “about 80%”; in the assay with 4T-1 cells, “about 60%”. Moreover, the “tumor volume reduction as compared to control” value in [4] (day 60) stood at 55%. Moreover, the “tumor volume in treated group” value was found to be 111.3±18.4 mm^3 in assay [4] (day 60, n=10) and 1446.7±142.6 mm^3 in the assay on 4T-1 orthotopic tumors (day 28, n=8). In addition, in [4] (tumors dissected at day 60), the “tumor weight less than control” value was “about 53%”. Also, in the assay on 4T-1 orthotopic tumors (day 28), the tumor weight reduction was 27%. Further, the “suppression of tumor growth” value in the assay on melanoma tumors is given as “about 50%”. For the same substance, the tumor volume reduction in assay [5] was 70%. The tumor volume suppression in assay [6] (0.5 mg/kg i.p.) is 42%; in assay [6] (1mg/kg i.p.), 55%.
